Laboratory results as given in patent US11274114B2, “Modified mito-metformin compounds and methods of synthesis and use thereof” (THE MEDICAL COLLEGE OF WISCONSIN, INC., priority 2014, dated 2022).
“And” between values parts separate entries of the source, which are not always exact repeats. Equal entries are not always repeated.

Assays:
[1] = tested on: MiaPaCa-2 cells; experiment: IncuCyte real-time cell proliferation (cell confluence); assay type: cell-based, human
Protocol: Cell proliferation was measured using a label-free, non-invasive cellular confluence assay employing the IncuCyte™ Live-Cell Imaging Analyzer (Essen Bioscience). This system provides real-time cellular confluence data based on segmentation of high definition phase contrast images. MiaPaCa2 (1,000 cells/well) were seeded overnight on a 96-well plate, placed in an XL-3 incubation chamber maintained at 37 C. and cells photographed and confluence calculated every 2 hr by IncuCyte software. MiaPaCa2 cells were treated with Met (1 and 2 mM) or Mito-Met-C10 (1-2 μM).
(§1) IncuCyte Analyzer-real time measurement of cell proliferation. The cell proliferation was measured using a label-free, noninvasive cellular confluence assay by IncuCyte Live-Cell Imaging Systems (Essen Bioscience, Ann Arbor, Mich., USA; IncuCyte FLR). This system enables collection of live cell images at 2 h intervals over several days. The IncuCyte Analyzer provides real-time cellular confluence data based on segmentation of high-definition phase-contrast images. The cell proliferation is expressed as an increase in percentage of cell confluence.

[2] = tested on: MiaPaCa-2 cells; experiment: Oxygen consumption rate in intact cells, Seahorse XF96; assay type: cell-based, human; settings: for concentration that inhibited OCR: intact MiaPaCa-2, after 24 h treatment and washout; for OCR inhibition: immediately after addition
Protocol: (§2) Respiratory enzyme activity in intact and permeabilized cells. The mitochondrial function in intact and permeabilized pancreatic cancer cells was measured using a Seahorse XF96 Extracellular Flux Analyzer (Seahorse Bioscience, North Billerica, Mass., USA). Unless specified otherwise, assays in intact cells were performed as previously described. Measurement of mitochondrial respiratory complexes in permeabilized cells was performed according to the manufacturer's instructions (Seahorse Bioscience). Briefly, intact cells were permeabilized using 1 nM Plasma Membrane Permeabilizer (PMP, Seahorse Bioscience) immediately before oxygen consumption rate (OCR) measurement by XF96. The oxygen consumption derived from mitochondrial complex I or complex II activity was measured by providing different substrates to mitochondria, e.g., pyruvate/malate for complex I and succinate for complex II activity. Rotenone, malonate and antimycin A were used as specific inhibitors of mitochondrial complex I, II and III activities, respectively.
Effects of Met and Mito-Met analogs on mitochondrial bioenergetics in MiaPaCa-2 cells. The oxygen consumption rate (OCR) and the extracellular acidification rate (ECAR) were measured as a readout of mitochondrial function and glycolysis using a Seahorse Bioscience XF96 extracellular flux analyzer. We compared the immediate OCR changes in response to different concentrations (e.g., IC50 or higher values determined by clonogenic assay) of Met, Mito-Met2, Mito-Met6, Mito-Met10, and phenformin (FIG. 13A).

[3] = tested on: MiaPaCa-2 cells; experiment: Radiosensitization (X-radiation, clonogenic survival); assay type: cell-based, human; settings: for PDAC radiosensitivity: 24 h pretreatment before X-radiation
Protocol: MiaPaCa2 cells (1000 cells/well) were cultured in quadruplicate overnight in 96-well plates and changed to fresh medium.
(§3) Radiation experiments. […] The cells were then treated with X-radiation at a dose of 0, 2, 4, and 6 Gy. The control cells were treated with the same concentration of vehicle (0.1% DMSO) where appropriate. After irradiation, cells were suspended and seeded at various densities (100-8,000 cells per well) in 6-well plates for clonogenic assay as described above. The plates were kept within the incubator and media changed every 3-4 days for 2 weeks. Wells with 10-50 sufficiently large clones were chosen for calculating the cell survival fractions.

[4] = tested on: HaCaT cells; experiment: IncuCyte cell proliferation in nonmalignant cells; assay type: cell-based; settings: HaCaT keratinocytes
Protocol: as §1

[5] = tested on: MCF-10A cells; experiment: IncuCyte cell proliferation in nonmalignant cells; assay type: cell-based; settings: MCF-10A breast epithelial cells
Protocol: as §1

[6] = target: T1, mitochondrial complex I (Homo sapiens, UniProt O75251+O75306+P03886); experiment: Complex I oxygen consumption (pyruvate/malate-driven OCR) in permeabilized cells, Seahorse XF96; assay type: cell-based; parameters: IC50, complex I oxygen consumption; other: permeabilized MiaPaCa-2, added acutely; settings: permeabilized MiaPaCa-2, added acutely
Protocol: as §2
(§4) The oxygen consumption rate was measured using the permeabilized MiaPaCa-2 cells in MAS buffer supplemented with pyruvate. The use of permeabilized cells avoids differences in cellular uptake of compounds. […] We tested the effect of pretreating cells with Mito-Met10 or Met using the permeabilized model. […]
Target sequence in this assay (P03886 whole entry): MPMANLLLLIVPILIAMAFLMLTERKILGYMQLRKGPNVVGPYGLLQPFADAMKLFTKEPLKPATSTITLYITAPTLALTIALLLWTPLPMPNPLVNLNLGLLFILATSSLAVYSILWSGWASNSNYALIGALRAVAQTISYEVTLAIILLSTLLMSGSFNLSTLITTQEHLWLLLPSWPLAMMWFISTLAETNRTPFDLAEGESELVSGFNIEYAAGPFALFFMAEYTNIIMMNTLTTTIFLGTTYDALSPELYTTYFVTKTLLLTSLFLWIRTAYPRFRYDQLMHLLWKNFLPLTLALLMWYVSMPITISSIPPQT
Target sequence in this assay (O75251 39-213): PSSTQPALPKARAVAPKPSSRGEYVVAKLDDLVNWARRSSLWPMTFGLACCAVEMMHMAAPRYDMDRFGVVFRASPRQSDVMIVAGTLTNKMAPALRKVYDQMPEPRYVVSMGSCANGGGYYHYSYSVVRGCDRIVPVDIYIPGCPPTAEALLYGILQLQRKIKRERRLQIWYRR
Target sequence in this assay (O75306 34-463): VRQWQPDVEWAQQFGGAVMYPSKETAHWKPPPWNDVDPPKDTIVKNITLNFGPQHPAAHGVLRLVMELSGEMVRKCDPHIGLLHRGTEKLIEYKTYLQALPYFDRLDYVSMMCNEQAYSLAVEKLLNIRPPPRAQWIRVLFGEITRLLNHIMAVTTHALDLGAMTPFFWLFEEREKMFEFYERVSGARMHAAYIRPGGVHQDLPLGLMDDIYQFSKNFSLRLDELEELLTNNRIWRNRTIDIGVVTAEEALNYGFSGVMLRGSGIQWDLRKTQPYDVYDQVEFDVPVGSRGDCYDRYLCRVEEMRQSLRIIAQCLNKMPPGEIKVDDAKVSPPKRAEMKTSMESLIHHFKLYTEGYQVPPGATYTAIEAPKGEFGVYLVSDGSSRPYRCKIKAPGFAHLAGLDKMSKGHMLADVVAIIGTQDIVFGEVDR

[7] = tested on: MiaPaCa-2 cells; experiment: Clonogenic assay (colony formation, survival fraction); assay type: cell-based, human; settings: for colony formation: 24 h; for IC50: Homo sapiens, MIA PaCa-2, 24 h, read-out: IC50, colony formation / survival fraction
Protocol: Clonogenic assay. […] The plates were kept within the incubator and media changed every 3-4 days until the control cells formed sufficiently large clones. The cell survival fractions were calculated as previously described.

[8] = tested on: MiaPaCa-2 cell 3D spheroids; experiment: Three-dimensional spheroid growth in Matrigel; assay type: cell-based, human; settings: 0.5 μM, compared to Met 10,000 μM
Protocol: Three-dimensional spheroid cell cultures of PDAC. MiaPaCa-2 cells (5,000) were seeded in 96-well plates containing Matrigel (Corning), used as scaffold. This typical 3D-cell culture system allows spheroids to form within the matrix. […] At days 3, 7, and 14 the wells were observed by bright-field microscopy and images acquired on a Nikon Eclipse Ti inverted microscope (Nikon instrument Inc., NY, USA). Spheroid-forming cells were counted using the Nikon NIS Elements imaging software (Nikon). Data are expressed as mean and SD of number of spheroids.

[9] = tested on: MiaPaCa-2 cells; experiment: Sytox Green cytotoxicity assay; assay type: cell-based; settings: MiaPaCa-2, 24 h, 100 μM
Protocol: Cytotoxicity assay. To determine the cytotoxicity of Mito-Met analogs and other TPP^+-conjugated to a long chain aliphatic hydrocarbon, we used the Sytox assay as described previously. MiaPaCa-2 cells were treated for 24 h, and dead cells were monitored in the presence of 200 nM Sytox Green (Invitrogen). The Sytox method labels the nuclei of dead cells yielding green fluorescence. Fluorescence intensities from the dead cells in 96-well plate were acquired in real time every 15 min after 4 h using a plate reader (BMG Labtech, Inc.) equipped with an atmosphere controller set at 37° C. and 5% CO2:95% air, using a fluorescence detection with 485 nm (excitation) and 535 nm (emission). To measure the total cell number, all of the samples in each treatment group were permeabilized by adding Triton X 100 (0.065%) in the presence of Sytox Green for 3 h, and maximal fluorescence intensities were taken as 100%. Data are represented as a percentage of dead cells after normalization to total cell number for each group.

[10] = target: T1, mitochondrial complex I; experiment: Complex I oxygen consumption (pyruvate/malate-driven OCR) in permeabilized cells, Seahorse XF96; assay type: cell-based; settings: 24 h treatment, then permeabilized
Protocol: as §2, §4
Target sequence in this assay (O75251 39-213): as the sequence (O75251 39-213) above
Target sequence in this assay (O75306 34-463): as the sequence (O75306 34-463) above
Target sequence in this assay (P03886 whole entry): as the sequence (P03886 whole entry) above

[11] = mouse
Protocol: In an initial proof-of-concept experiment, syngeneic KPC cells expressing Firefly luciferase (FC1242-luc) were orthotopically implanted to the pancreas of C57BL/6 mice and tumor growth monitored using bioluminescence imaging (FIG. 15F). Mice orthotopically autografted with FC1242-luc cells were treated daily with 1 mg/kg or 150 mg/kg Met, or 1 mg/kg Mito-Met. […] Serum from these animals was collected, and hepatic and kidney toxicity tested using standard AST, ALT, AP, and BUN assays, respectively.

[12] = tested on: MiaPaCa-2 cells
Protocol: Cells were grown on 10 cm dishes and treated with the compounds for 24 h in full media.
Next we investigated the relative uptake of different Mito-Met analogs (Mito-Met2, Mito-Met6, and Mito-Met10) and phenformin in MiaPaCa-2 cells (FIG. 12D). Cells were treated with respective Mito-Met analog (1 μM) for 1 h. Cells were lysed after washing and analyzed for Mito-Met analog by LC-MS.

[13] = tested on: FC1242-luc autografts; experiment: Orthotopic syngeneic FC1242-luc tumor growth, bioluminescence imaging and calipers; assay type: in vivo, C57BL/6 mice; settings: for in vivo tumor growth relative to Met: 1 mg/kg daily, intraperitoneal
From the text: In vivo studies and bioluminescence imaging.

[14] = tested on: MCF-10A cells; experiment: Radiosensitization (X-radiation, clonogenic survival) in normal cells; assay type: cell-based; settings: 1 μM pretreatment
Protocol: as §3

[15] = tested on: AMPK; experiment: AMPK activation immunoblot (phospho-Thr-172 / total AMPK); assay type: cell-based, human; settings: MiaPaCa-2
Protocol: In this example, the inventors have shown that the mito-met compounds of the present invention cause an increased AMPK activation in cancer cells. In preliminary experiments (FIG. 4), human MiaPaCa2 and murine FC1199 PDAC cells treated 30 min with 1 μM mito-met (MM), 1 mM Met, or the oligomycin positive control were lysed, and proteins size-separated on SDS-PAGE, transferred to PVDF, and probed with an antibody to phosphorylated AMPK Thr-172.
Immunoblotting. MiaPaCa-2 PDAC cells (1×10^6) were plated to 80% confluency in 60 mm dishes and then serum-starved for 5 hours. […] Cells were stimulated with oligomycin as a positive control. After stimulation, cells were washed twice in cold PBS and lysed using a modified RIPA buffer. Lysates were normalized for protein concentration, size separated using reducing SDS-PAGE, electro-transferred to PVDF membranes (Millipore) and then probed using primary and horseradish peroxidase-conjugated secondary antibodies. Antibodies against total or phosphorylated 5′ AMP-activated protein kinase (AMPK) were purchased from Cell Signaling Technology (Danvers, Mass.) and used at the manufacturer's recommended dilutions. Proteins were visualized by chemiluminescence with auto-exposure and quantified by densitometric analysis using the FluorChem HD2 from Cell Biosciences (Santa Clara, Calif.).

[16] = Tissue accumulation in FC1242-luc orthotopic mice; assay type: in vivo; settings: 1 mg/kg daily for 2 weeks, tissues harvested 3 days after last treatment
Protocol: FIG. 19. Tissue accumulation of Mito-Met in in vivo FC1242-luc orthotopic mouse model. FC1242-luc orthotopic mice treated with Mito-Met10 (1 mg/kg) daily for 2 weeks. Tissue harvesting and extractions were performed 3 days after the last treatment. Quantitative data on concentrations of Mito-Met after normalization to tissue wet weight are represented as mean±SD, n=5.

[17] = intact MiaPaCa-2, immediately after addition

CN(C)C(=N)N=C(N)N [Metformin]
inhibition at 1000 µM ([1]; Homo sapiens, MIA PaCa-2, 1,000 μM, read-out: inhibition of cell growth): 80%
concentration that dose-dependently decreased oxygen consumption [2, 17]: 1 to 10 mM
PDAC radiosensitivity ([3]; 1 mM): increased radio-sensitization
PDAC radiosensitivity ([3]; 1 mM, listed as Met): increased radiosensitization
cell proliferation (confluence) of nonmalignant cells [4]: not significantly affected
cell proliferation (confluence) of nonmalignant cells [5]: not significantly affected
concentration that inhibited OCR [6]: 3,000 μM
colony formation ([7]; 3 mM): Almost no colony formation
IC50 [7]: 1300 µM

N=C(N)NC(=N)NCC[P+](c1ccccc1)(c1ccccc1)c1ccccc1.[Br-] [Mito-Met2]
concentration that inhibited OCR [2]: 25 µM

N=C(N)NC(=N)NCCCCCCCCCC[P+](c1ccccc1)(c1ccccc1)c1ccccc1.[Br-] [Mito-Met10]
spheroid growth [8]: potently inhibited
fold more effective than Met in inhibiting PDAC proliferation [1]: ~1,000 fold and > 1,000 fold
inhibition at 0.2 µM ([1]; Homo sapiens, MIA PaCa-2, 0.2 μM, read-out: inhibition of cell growth): 70%
inhibition at 1 µM ([1]; Homo sapiens, MIA PaCa-2, 1 μM, read-out: inhibition of cell growth): > 90%
IC50 ([1]; Homo sapiens, MIA PaCa-2, MiaPaCa-2, read-out: IC50 (FIG. 12B, cell confluence)): 0.84 µM
cell death (Sytox Green) [9]: no detectable cell death
concentration giving significant decrease in OCR (complex I inhibition) [10]: 0.75 µM
OCR inhibition ([2]; 1 μM): did not inhibit OCR
concentration that inhibited OCR [2]: 1 µM
OCR inhibition ([2]; ≈10 μM): slight inhibition
toxicity in vivo (hepatic and kidney) [11]: neither Met nor the mitochondria-targeted analog Mito-Met elicited toxicity in vivo
fold lower concentration than Met for enhancement of radiation sensitivity ([3]; 1 μM versus Met 1 mM): 1,000 fold
PDAC radiosensitivity ([3]; 1 μM): as effective as 1 mM Met
difference in intracellular uptake and retention, MiaPaCa-2 and MCF-10A cells ([12]; LC-MS (FIG. 14C)): four-fold
cellular uptake, fold higher than phenformin ([12]; MiaPaCa-2, 1 μM, 1 h): ~100 fold
cell proliferation (confluence) of nonmalignant cells [4]: not significantly affected
cell proliferation (confluence) of nonmalignant cells [5]: not significantly affected
in vivo tumor growth relative to Met [13]: considerably more potent than Met
in vivo tumor growth relative to Met ([13]; listed as Mito-Met): considerably more effective than Met
therapeutic index, fold greater than Met ([13]; in vivo experiments): ~1,000 fold
concentration that inhibited OCR [6]: 10 µM
radiosensitivity in normal cells [14]: no radiosensitivity was observed
AMPK activation, fold more potent / lower concentration than metformin [15]: ~1,000 fold
tissue accumulation [16]: increased accumulation of this compound in liver, kidney, spleen, and tumor
colony formation ([7]; 3 μM): Almost no colony formation
IC50 [7]: 1.1 µM
fold more effective than metformin in inhibiting MiaPaCa-2 cell proliferation ([7]; clonogenic, 24 h treatment (FIG. 5)): ~1,000 fold

COC1=C(OC)C(=O)C(CCCCCCCCCC[P+](c2ccccc2)(c2ccccc2)c2ccccc2)=C(C)C1=O [Mito-Q]
cell death (Sytox Green) [9]: considerably more cytotoxic

CC1(C)CC(OCCCCC[P+](c2ccccc2)(c2ccccc2)c2ccccc2)CC(C)(C)N1[O].[Br-] [Mito-Tempol]
cell death (Sytox Green) [9]: considerably more cytotoxic

[H]/N=C(/N)N/C(=N/[H])NCCc1ccccc1 [Phenformin, reference compound]
concentration inhibiting OCR to the same extent as Met [2, 17]: ten-fold lower concentration
